Where “and” joins values, the source holds several entries; their conditions need not be identical. Equal entries are not always repeated.
Columns and labels:
[1] = literature statement on charged platinum species; cited from earlier work
S180 ascites = assay: Screening for anti-tumor activity against S180 ascites (S180a) in mice; format: in vivo, female CFW Swiss mice; conditions: for 30-Day Survivors / %ILS: medium H2O; for 30-Day Survivors: survivors/mice in set; for %ILS: injected day 1, S180a in mice, upper limit 100%
Protocol: The compounds were evaluated for anti-tumor activity against S180 ascites in female CFW Swiss mice by the following procedure: CFW mice, averaging 20g, are immediately inspected and placed in newly prepared cages. On day zero the mice are inoculated with 0.2 ml. of a freshly prepared saline suspension (0.15 M NaCl) containing 1 x 10⁷ tumor cells/ml, or a total of 2 x 10⁶ cells. This inoculum is freshly prepared using "transfer" mice which have been injected with tumor cells the previous week. This inoculum is the end-product of a series of steps which involves (1) the removal of the cells from the peritoneal cavity of the sacrificed transfer mouse, (2) alternate centrifugation-washing (2-3 times with cold saline) to remove occasional blood and other undesirable components, and finally (3) dilution (1:3) of the packed cell volume with saline (the final centrifugation being carried out at 1,000 rpm for 2 min.). A cell count is made on a 2,000-fold dilution of this 1:3 suspension by means of a Coulter Counter. A final dilution to 1 x 10⁷ cells/ml. is made based on the averaged count. On day 1, solutions of the test compounds are prepared and the mice injected, with each mouse of a set of six being injected with the same test compound at the same dose level.
ILS values above 50% represent significant activity; those above 75% represent excellent activity.

[2] = 8 mg/kg in saline, positive control run with each experiment, S180a in mice

N.N.N.N.[Cl][Pt][Cl] [[Pt(NH₃)₄]Cl₂]
antitumor activity [1]: completely inactive

N.N.[Cl][Pt][Cl] [cis-[Pt(NH3)2Cl2], cis-diamminedichloroplatinum(II), reference compound]
Positive Control 30-Day Survivors (S180 ascites; [2]): 2/6 and 4/6 and 1/6 and 3/6 and 2/7
Positive Control %ILS (S180 ascites; [2]): 79% and 66% and 80% and 94% and 73% and 72% and 98%
optimum activity (dose) (S180 ascites; under identical screening): 9 to 10 mg/kg

[Cl-].[NH3+][Pt-2]([NH3+])([Cl])[n+]1cccc(O)c1 (stereo not drawn) [Example 4, Cis-chlorodiammine-3-hydroxypyridineplatinum(II) Chloride]
30-Day Survivors (S180 ascites; Dose 10 mg/kg, S180a in mice): 0/6
%ILS (S180 ascites; Dose 10 mg/kg): 5%
30-Day Survivors (S180 ascites; Dose 20 mg/kg, S180a in mice): 0/6
%ILS (S180 ascites; Dose 20 mg/kg): 10%
30-Day Survivors (S180 ascites; Dose 40 mg/kg, S180a in mice): 0/6
%ILS (S180 ascites; Dose 40 mg/kg): 54%
30-Day Survivors (S180 ascites; Dose 80 mg/kg, S180a in mice): 1/6
%ILS (S180 ascites; Dose 80 mg/kg): 69%
30-Day Survivors (S180 ascites; Dose 160 mg/kg, S180a in mice): 1/6
%ILS (S180 ascites; Dose 160 mg/kg): -8%
30-Day Survivors (S180 ascites; Dose 320 mg/kg, S180a in mice): 0/6
%ILS (S180 ascites; Dose 320 mg/kg): -75%

N.N.Nc1cc[nH]c(=O)n1.[Cl-].[Cl][Pt+] [Example 6, Cis-chlorodiamminecytosineplatinum(II) chloride]
30-Day Survivors (S180 ascites; Dose 20 mg/kg, S180a in mice): 0/6
%ILS (S180 ascites; Dose 20 mg/kg): 23%
30-Day Survivors (S180 ascites; Dose 40 mg/kg, S180a in mice): 1/6
%ILS (S180 ascites; Dose 40 mg/kg): 58%
30-Day Survivors (S180 ascites; Dose 80 mg/kg, S180a in mice): 4/6
%ILS (S180 ascites; Dose 80 mg/kg): 92%
30-Day Survivors (S180 ascites; Dose 160 mg/kg, S180a in mice): 3/6
%ILS (S180 ascites; Dose 160 mg/kg): 68%
30-Day Survivors (S180 ascites; Dose 320 mg/kg, S180a in mice): 2/6
%ILS (S180 ascites; Dose 320 mg/kg): -16%
30-Day Survivors (S180 ascites; Dose 640 mg/kg, S180a in mice): 0/6
%ILS (S180 ascites; Dose 640 mg/kg): -74%

[Cl-].[NH3+][Pt-2]([NH3+])([Cl])[n+]1ccc(Cl)cc1 (stereo not drawn) [Example 8, Cis-chlorodiammine-4-chloropyridineplatinum(II) chloride]
30-Day Survivors (S180 ascites; Dose 10 mg/kg, S180a in mice): 0/6
%ILS (S180 ascites; Dose 10 mg/kg): 22%
30-Day Survivors (S180 ascites; Dose 20 mg/kg, S180a in mice): 2/6
%ILS (S180 ascites; Dose 20 mg/kg): 68%
30-Day Survivors (S180 ascites; Dose 40 mg/kg, S180a in mice): 4/6
%ILS (S180 ascites; Dose 40 mg/kg): 77%
30-Day Survivors (S180 ascites; Dose 80 mg/kg, S180a in mice): 4/6
%ILS (S180 ascites; Dose 80 mg/kg): 36%
30-Day Survivors (S180 ascites; Dose 160 mg/kg, S180a in mice): 0/6
%ILS (S180 ascites; Dose 160 mg/kg): -77%
30-Day Survivors (S180 ascites; Dose 320 mg/kg, S180a in mice): 0/6
%ILS (S180 ascites; Dose 320 mg/kg): -94%

N.N.Oc1ccccn1.[Cl-].[Cl][Pt+] [Example 2, Cis-Chlorodiammine-2-hydroxypyridineplatinum(II) Chloride]
30-Day Survivors (S180 ascites; Dose 5 mg/kg, S180a in mice): 0/6
%ILS (S180 ascites; Dose 5 mg/kg): 15%
30-Day Survivors (S180 ascites; Dose 10 mg/kg, S180a in mice): 0/6
%ILS (S180 ascites; Dose 10 mg/kg): 15%
30-Day Survivors (S180 ascites; Dose 20 mg/kg, S180a in mice): 0/6
%ILS (S180 ascites; Dose 20 mg/kg): 28%
30-Day Survivors (S180 ascites; Dose 40 mg/kg, S180a in mice): 4/6 and 2/6
%ILS (S180 ascites; Dose 40 mg/kg, 40 mg/kg): 95% and 78%
30-Day Survivors (S180 ascites; Dose 80 mg/kg, S180a in mice): 4/6 and 2/6
%ILS (S180 ascites; Dose 80 mg/kg, 80 mg/kg): 91% and 80%
30-Day Survivors (S180 ascites; Dose 160 mg/kg, S180a in mice): 3/6
%ILS (S180 ascites; Dose 160 mg/kg): 64%
30-Day Survivors (S180 ascites; Dose 320 mg/kg, S180a in mice): 0/6
%ILS (S180 ascites; Dose 320 mg/kg): -74%
30-Day Survivors (S180 ascites; Dose 640 mg/kg, S180a in mice): 0/6
%ILS (S180 ascites; Dose 640 mg/kg): -77%
30-Day Survivors (S180 ascites; Dose 1280 mg/kg, S180a in mice): 0/6
%ILS (S180 ascites; Dose 1280 mg/kg): -84%

Cc1cccc(O)[n+]1[Pt-2]([NH3+])([NH3+])[Cl].[Cl-] (stereo not drawn) [Example 3, Cis-Chlorodiammine-6-methyl-2-hydroxypyridineplatinum(II) Chloride]
30-Day Survivors (S180 ascites; Dose 10 mg/kg, S180a in mice): 0/6
%ILS (S180 ascites; Dose 10 mg/kg): -9%
30-Day Survivors (S180 ascites; Dose 20 mg/kg, S180a in mice): 0/6
%ILS (S180 ascites; Dose 20 mg/kg): -6%
30-Day Survivors (S180 ascites; Dose 40 mg/kg, S180a in mice): 0/6
%ILS (S180 ascites; Dose 40 mg/kg): 12%
30-Day Survivors (S180 ascites; Dose 80 mg/kg, S180a in mice): 0/6
%ILS (S180 ascites; Dose 80 mg/kg): 15%
30-Day Survivors (S180 ascites; Dose 160 mg/kg, S180a in mice): 5/6
%ILS (S180 ascites; Dose 160 mg/kg): 93%
30-Day Survivors (S180 ascites; Dose 320 mg/kg, S180a in mice): 3/6
%ILS (S180 ascites; Dose 320 mg/kg): 93%

Cc1ccc(O)c[n+]1[Pt-2]([NH3+])([NH3+])[Cl].[Cl-] (stereo not drawn) [Example 7, Cis-chlorodiammine-6-methyl-3-hydroxypyridineplatinum(II) chloride]
30-Day Survivors (S180 ascites; Dose 20 mg/kg, S180a in mice): 0/6
%ILS (S180 ascites; Dose 20 mg/kg): 30%
30-Day Survivors (S180 ascites; Dose 40 mg/kg, S180a in mice): 2/6
%ILS (S180 ascites; Dose 40 mg/kg): 70%
30-Day Survivors (S180 ascites; Dose 80 mg/kg, S180a in mice): 4/6
%ILS (S180 ascites; Dose 80 mg/kg): 93%
30-Day Survivors (S180 ascites; Dose 160 mg/kg, S180a in mice): 3/6
%ILS (S180 ascites; Dose 160 mg/kg): 82%
30-Day Survivors (S180 ascites; Dose 320 mg/kg, S180a in mice): 0/6
%ILS (S180 ascites; Dose 320 mg/kg): -49%
30-Day Survivors (S180 ascites; Dose 640 mg/kg, S180a in mice): 0/6
%ILS (S180 ascites; Dose 640 mg/kg): -75%

[Cl][Pt-2]([Cl])([Cl])[Cl].[K+].[K+] [K₂PtCl₄]
antitumor activity [1]: completely inactive

N.N.[Cl-].[Cl][Pt+].c1ccncc1 [Example 1, Cis-Chlorodiamminepyridineplatinum(II) Chloride]
30-Day Survivors (S180 ascites; Dose 5 mg/kg, S180a in mice): 0/6
%ILS (S180 ascites; Dose 5 mg/kg, 5 mg/kg): 19%
30-Day Survivors (S180 ascites; Dose 10 mg/kg, S180a in mice): 0/6
30-Day Survivors (S180 ascites; Dose 20 mg/kg, S180a in mice): 1/6 and 0/6
%ILS (S180 ascites; Dose 20 mg/kg, 20 mg/kg): 73% and 70%
30-Day Survivors (S180 ascites; Dose 40 mg/kg, S180a in mice): 4/6 and 6/6
%ILS (S180 ascites; Dose 40 mg/kg, 40 mg/kg): 91% and 100%
%ILS (S180 ascites; Dose 40 mg/kg, listed as Cis-[Pt(NH₃)₂(py)Cl]Cl, 40 mg/kg): 100%
30-Day Survivors (S180 ascites; Dose 80 mg/kg, S180a in mice): 0/6 and 4/6
30-Day Survivors (S180 ascites; Dose 160 mg/kg, S180a in mice): 0/6
30-Day Survivors (S180 ascites; Dose 320 mg/kg, S180a in mice): 0/7
%ILS (S180 ascites; Dose 320 mg/kg): -94%

N.N.[Cl-].[Cl][Pt+].c1ccncc1 [Example 18, Trans-Chlorodiamminepyridineplatinum(II) Chloride]
30-Day Survivors (S180 ascites; Dose 5 mg/kg, S180a in mice): 0/6
%ILS (S180 ascites; Dose 5 mg/kg, 5 mg/kg): 2%
30-Day Survivors (S180 ascites; Dose 10 mg/kg, S180a in mice): 0/6
%ILS (S180 ascites; Dose 10 mg/kg, 10 mg/kg): 7%
30-Day Survivors (S180 ascites; Dose 20 mg/kg, S180a in mice): 0/6
%ILS (S180 ascites; Dose 20 mg/kg, 20 mg/kg): 6%
30-Day Survivors (S180 ascites; Dose 40 mg/kg, S180a in mice): 0/6
%ILS (S180 ascites; Dose 40 mg/kg, 40 mg/kg): 15%
30-Day Survivors (S180 ascites; Dose 80 mg/kg, S180a in mice): 0/6
%ILS (S180 ascites; Dose 80 mg/kg, 80 mg/kg): 26%
30-Day Survivors (S180 ascites; Dose 160 mg/kg, S180a in mice): 0/6
%ILS (S180 ascites; Dose 160 mg/kg, 160 mg/kg): -70%

[Cl-].[Cl][Pt-2]1([n+]2ccccc2)[NH2+]C2CCCCC2[NH2+]1 (centres unmarked) [Example 19, Chloro-1,2-diaminocyclohexanepyridineplatinum(II) chloride]
30-Day Survivors (S180 ascites; Dose 10 mg/kg, S180a in mice): 0/6
%ILS (S180 ascites; Dose 10 mg/kg): 6%
30-Day Survivors (S180 ascites; Dose 20 mg/kg, S180a in mice): 0/6
%ILS (S180 ascites; Dose 20 mg/kg): 8%
30-Day Survivors (S180 ascites; Dose 40 mg/kg, S180a in mice): 0/6
%ILS (S180 ascites; Dose 40 mg/kg): 6%
30-Day Survivors (S180 ascites; Dose 80 mg/kg, S180a in mice): 0/6
%ILS (S180 ascites; Dose 80 mg/kg): 15%
30-Day Survivors (S180 ascites; Dose 160 mg/kg, S180a in mice): 0/6
%ILS (S180 ascites; Dose 160 mg/kg): 25%
30-Day Survivors (S180 ascites; Dose 320 mg/kg, S180a in mice): 0/6
%ILS (S180 ascites; Dose 320 mg/kg): -94%

Cc1cc[n+]([Pt-2]([NH3+])([NH3+])[Cl])cc1.[Cl-] (stereo not drawn) [Example 5, Cis-chlorodiammine-4-methylpyridineplatinum(II)chloride]
30-Day Survivors (S180 ascites; Dose 10 mg/kg, S180a in mice): 0/6
%ILS (S180 ascites; Dose 10 mg/kg): 5%
30-Day Survivors (S180 ascites; Dose 20 mg/kg, S180a in mice): 1/6
%ILS (S180 ascites; Dose 20 mg/kg): 27%
30-Day Survivors (S180 ascites; Dose 40 mg/kg, S180a in mice): 2/6
%ILS (S180 ascites; Dose 40 mg/kg): 83%
30-Day Survivors (S180 ascites; Dose 80 mg/kg, S180a in mice): 1/6
%ILS (S180 ascites; Dose 80 mg/kg): 66%
30-Day Survivors (S180 ascites; Dose 160 mg/kg, S180a in mice): 0/6
%ILS (S180 ascites; Dose 160 mg/kg): -77%
30-Day Survivors (S180 ascites; Dose 320 mg/kg, S180a in mice): 0/6
%ILS (S180 ascites; Dose 320 mg/kg): -91%

Source: patent EP0199524B1, “Platinum tramine antitumor agents” (ENGELHARD CORPORATION, priority 1985, dated 1986)
